Reference: US9974767B2, “Statins in the treatment of muscular dystrophies and myopathies” (University of Washington, priority 2014, dated 2018)

Columns and labels:
Format in all cases: in vivo, mouse
CD68 = CD68 immunofluorescence of TA muscle sections (inflammation); conditions: mdx Sim vs mdx Con, 8 months treatment
Description: Next, we quantified the extent of inflammation, a key feature of the dystrophic muscle pathology, by immunofluorescence of TA muscle sections with CD68, a marker of macrophages and other inflammatory cells.
Muscles were imbedded in O.C.T compound and frozen in isopentane cooled in liquid nitrogen. Cryosections (10 μm thick) were placed on a glass side. Sections were fixed with either ice-cold methanol or 2% paraformaldehyde for 5 to 10 min. Some sections were stained with Haemotoxylin and Eosin (H & E) using standard procedures. For immunofluorescence, sections were incubated in blocking buffer (0.8% BSA and 1% fish gelatin in PBS) for 45 min. Primary antibodies; Fibronectin (Sigma), CD68 (Abcam), Caveolin3 (BD Biosciences), and Myosin Heavy Chain 1, 2A and 2B (Developmental Studies Hybridoma Bank) were added for 1 hr 30 min at room temperature. AlexaFluor conjugated secondary antibodies (Life Technologies) were then added for 1 hr 30 min. In some experiments, DAPI was also added to detect nuclei. […] For fluorescence quantification (CD68, fibronectin and myosin heavy chains), images were converted to grayscale in Image J and a threshold applied to calculate the area of fluorescence as a percent of the total area of the section. Fibers with central nuclei were expressed as a percent of total fibers with detectable nuclei (ie. both central and peripheral). […]

mdx mice [1] = assay: H&E histology of tibialis anterior (TA) muscle; conditions: mdx Sim vs mdx Con, 8 months treatment
mdx mice [2] = assay: Diaphragm fibrosis (fibronectin immunofluorescence, hydroxyproline assay for collagen I)
Source text: In order to be a viable treatment approach for DMD, a drug must be efficacious at different stages of the disease and target both skeletal and cardiac muscle. […] Diaphragm force production progressively declines with age in both mdx mice and DMD. […] The replacement of muscle fibers with fibrotic connective tissue is a major cause of impaired muscle force generation in DMD and therefore an important therapeutic target. […] Quantification of total collagen I levels by hydroxyproline assay indicated a 50% reduction in fibrosis for mdx Sim mice.
The diaphragm most closely recapitulates the functional deficits and fibrotic deposition that occur in DMD. […] Quantification of total collagen I levels in diaphragm muscles by hydroxyproline assay also indicated a 50% reduction in fibrosis for mdx Sim mice (FIG. 13E).
Muscles were imbedded in O.C.T compound and frozen in isopentane cooled in liquid nitrogen. […] For fluorescence quantification (CD68, fibronectin and myosin heavy chains), images were converted to grayscale in Image J and a threshold applied to calculate the area of fluorescence as a percent of the total area of the section. Fibers with central nuclei were expressed as a percent of total fibers with detectable nuclei (ie. both central and peripheral).
To quantify muscle fibrosis, Collagen I content was measured using the hydroxyproline assay. […]

mdx mice [3] = assay: TA muscle function in situ (specific force, fatigue, recovery)
Description: Hindlimb (TA) muscle physiology was measured in situ, which has the advantages of direct nerve stimulation and intact blood circulation. […] We also evaluated muscle fatigue resistance and recovery from fatigue, because this is a major cause of weakness in dystrophic muscle. TA muscle fatigue was assessed after 1 min and 2 min of repetitive tetanic contractions (2 sec apart). […] Recovery from muscle fatigue was measured every 2 min up to 10 min post fatigue.
Muscle degeneration and loss of function in DMD begins very early in the disease and progressively worsens over time. Consequently, useful therapeutic agents must be effective when administered at various stages of the disease. […] Hindlimb (TA) muscle physiology was measured in situ. This method has the advantages of direct nerve stimulation and intact blood circulation, which provides an essentially in vivo approach for measuring muscle function. Remarkably, specific muscle force increased by 40% (P<0.001) for mdx Sim compared to mdx Con mice, a dramatic increase for a pharmacological agent.
In addition to the loss of specific force, increased muscle fatigue and slowed force recovery are also significant causes of muscle weakness in DMD. Muscle fatigue in TA was measured during repetitive tetanic contractions (every 2 seconds) for a total of 2 minutes. For mdx Con mice, force declined rapidly during the early part of the fatigue and then much less steeply for the remainder of the contractions (FIG. 12A). In contrast, the force decline for mdx Sim was very similar to the WT groups, with a slow force drop over the first minute and then a greater decline over the last minute (see FIG. 12B). […] Recovery from fatigue was measured up to 10 min post fatigue (FIG. 12C). […] The cellular mechanisms of muscle fatigue are complex, however ROS are known to be an important cause of force loss during muscle fatigue.
Tibialis anterior (TA) muscle function was measured in situ. Mice were anaesthetized with an intraperitoneal injection of Avertin (625 mg/kg) and placed on a heated metal platform (37° C.). The distal TA tendon was dissected free and sutured to the lever arm of the force and length control system (305C-LR, Aurora Scientific). Muscle contraction was provided by stimulation of the Sciatic nerve using bipolar electrodes, which was kept moist during the experiment with PBS. The knee bone was firmly anchored to the platform via a steel pin. A length-force curve was generated by stimulating the muscle at 120 Hz (200 ms duration), every 90 sec, from short to long muscle lengths. […] Fatigue recovery was measured every 2 min up to 10 min post-fatigue. […] Membranes were incubated with enhanced chemiluminescence (ECL) reagent (Amersham) and bands were detected by the FluorChem M, imaging system (Protein Simple).

## CCC(C)(C)C(=O)O[C@H]1C[C@@H](C)C=C2C=C[C@H](C)[C@H](CC[C@@H]3C[C@@H](O)CC(=O)O3)[C@H]21 [Simvastatin, simvastatin]
CD68
  reduction of inflammatory cell levels (CD68): ~70%
Mdx mice [1]
  number of centrally nucleated (regenerated) muscle fibers: comparable number
Mdx mice [2]; diaphragm sections, old mdx Sim vs mdx Con
  attenuation of fibrosis, fibronectin immunofluorescence: 50%
Mdx mice [2]; diaphragm, old mdx mice, 2 months treatment
  reduction in fibrosis, total collagen I levels by hydroxyproline assay: 50%
Mdx mice [3]; mdx Sim
  force recovery at 2 min post fatigue: 80.9 % of the initial, pre-fatigue force
  force recovery at 10 min post fatigue: 86.9%
Mdx mice [3]; mdx Sim vs mdx Con, treatment from 3 to 6 months of age
  increase of hindlimb (TA) specific muscle force: 40%
Mdx mice [3]; mdx Sim, tetanic contractions every 2 sec, mdx Con 53%
  TA force after 1 minute of fatigue: 68 % of initial force
